Laboratory results: patent publication US5750530A, “Pharmaceutical diketopiperazine compounds” (Xenova Limited, priority 1994, dated 1998)
Structures can show the parent of a compound that is named as a salt. Where two headings read alike, the source gives them in different places.

Molecular target: PAI-1 (Homo sapiens, UniProt P05121)
Assay: biochemical
Type: biochemical
Description: The present compounds have been tested in a PAI functional assay. In this assay, a compound is incubated with PAI-1 prior to addition to the tPA assay system. Inhibition of PAI-1 results in the production of plasmin from plasminogen. In turn, plasmin cleaves the chromogenic substrate S2251 (Kabi Vitrum) producing pNA (p-nitroaniline) which is detected spectrophotometrically at 405 nm (K. Nilsson et al, Fibrinolysis (1987) 1, 163-168).
The present compounds were tested in a PAI chromogenic substrate assay. In the assay (K. Nilsson, Fibrinolysis (1987) 1, 163-168) each compound was incubated with PAI-1 prior to addition to the tPA assay system. […] In turn, the plasmin cleaved the chromogenic substrate S2251 (Kabi-Vitrum) producing pNA (p-nitroaniline) which was detected spectrophotometrically at 405 nm.
The degrees of inhibition observed in the chromogenic substrate assay at various concentrations, or the IC50 values, for each compound are presented in Table 1.

[1] = PAI chromogenic substrate assay

Chain of PAI-1 (P05121 24-402): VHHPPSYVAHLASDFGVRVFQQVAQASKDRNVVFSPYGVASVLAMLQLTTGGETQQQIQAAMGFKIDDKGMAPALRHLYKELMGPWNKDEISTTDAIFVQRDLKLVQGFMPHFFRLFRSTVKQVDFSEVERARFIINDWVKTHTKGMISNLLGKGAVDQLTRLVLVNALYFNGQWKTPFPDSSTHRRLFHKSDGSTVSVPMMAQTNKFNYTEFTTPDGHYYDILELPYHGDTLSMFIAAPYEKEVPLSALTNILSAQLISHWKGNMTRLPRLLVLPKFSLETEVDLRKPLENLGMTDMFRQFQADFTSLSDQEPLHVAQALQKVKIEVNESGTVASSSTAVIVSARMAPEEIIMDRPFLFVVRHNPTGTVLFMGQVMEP

| % Inhibition (5 μm) [%] | % Inhibition (20 μm) [%] | % Inhibition (100 μm) [%] | IC50 [1] [µM] | IC50 [µM] | Compound |
| --- | --- | --- | --- | --- | --- |
| 5 | 71 | 69 | 10 | – | CN(C)CCSc1ccc(/C=c2\[nH]c(=O)/c(=C/c3ccccc3)[nH]c2=O)cc1 [Compound 5128.HCl, (3Z,6Z)-6-Benzylidene-3-(4-(2-dimethylaminoethylthio)benzylidene)-2,5-piperazinedione] |
| 51 | 68 | 50 | 4.5 | – | CN(C)CCSc1ccc(/C=c2\[nH]c(=O)/c(=C/c3ccoc3)[nH]c2=O)cc1 [Compound 5129.HCl, (3Z,6Z)-6-(4-(2-Dimethylaminoethylthio)benzylidene)-3-(3-furylmethylene)-2,5-piperazinedione] |
| 0 | 6 | 34 | – | – | CN(C)CC[S+]([O-])c1ccc(/C=c2\[nH]c(=O)/c(=C/c3ccccc3)[nH]c2=O)cc1 (centres unmarked) [Compound 5141.HCl, (3Z,6Z)-6-Benzylidene-3-(4-(2-dimethylaminoethylsulphinyl)benzylidene)-2,5-piperazinedione] |
| – | 77 | 41 | 7 | – | CN(C)CCSc1ccc(/C=c2\[nH]c(=O)/c(=C/c3ccsc3)[nH]c2=O)s1 [Compound 5257, (3Z,6Z)-3-(5-(2-Dimethylaminoethylthio)-2-thienyl)methylene-6-(3-thienyl)methylene-2,5-piperazinedione] |
| – | 64 | 68 | – | 20 | CN(C)CCSc1ccc(/C=c2\[nH]c(=O)/c(=C/c3ccc4c(c3)OCO4)[nH]c2=O)s1 [Compound 5279, (3Z,6Z)-3-(5-(2-Dimethylaminoethylthio)-2-thienyl)methylene-6-(3,4-methylenedioxybenzylidene)-2,5-piperazinedione] |
| – | – | – | 13 | – | CN(C)CCSc1ccc(/C=c2\[nH]c(=O)/c(=C/c3ccc4c(c3)OCO4)[nH]c2=O)s1 [Compound 5279.HCl, (3Z,6Z)-3-(5-(2-Dimethylaminoethylthio)-2-thienyl)methylene-6-(3,4-methylenedioxybenzylidene)-2,5-piperazinedione] |
| – | 82 | 99 | 20 | – | CN(C)CCSc1ccc(/C=c2\[nH]c(=O)/c(=C/c3ccc(N(C)C)cc3)[nH]c2=O)s1 [Compound 5280, (3Z,6Z)-6-(4-Dimethylaminobenzylidene)-3-(5-(2-dimethylaminoethylthio)-2-thienyl)methylene-2,5-piperazinedione] |
| – | – | – | 3 | – | CN(C)CCSc1ccc(/C=c2\[nH]c(=O)/c(=C/c3ccc4ccccc4c3)[nH]c2=O)cc1 [Compound 5284, (3Z,6Z)-6-(4-(2-Dimethylaminoethylthio)benzylidene)-3-(2-naphthylmethylene)-2,5-piperazinedione] |
| – | 77 | 98 | 14 | – | CN(C)CCSc1ccc(/C=c2\[nH]c(=O)/c(=C/c3ccc4ccccc4c3)[nH]c2=O)s1 [Compound 5286.HCl, (3Z,6Z)-3-(5-(2-Dimethylaminoethylthio)-2-thienyl)methylene-6-(2-naphthyl)methylene-2,5-piperazinedione] |
| – | – | – | 3 | – | CN(C)CCSc1ccc(/C=c2\[nH]c(=O)/c(=C/c3cccc(Cl)c3)[nH]c2=O)cc1 [Compound 5292, (3Z,6Z)-3-(3-Chlorobenzylidene)-6-(4-(2-dimethylaminoethylthio)benzylidene)-2,5-piperazinedione] |
| – | – | – | 2.5 | – | CN(C)CCSc1ccc(/C=c2\[nH]c(=O)/c(=C/c3ccc(C(F)(F)F)cc3)[nH]c2=O)cc1 [Compound 5294, (3Z,6Z)-3-(4-(2-Dimethylaminoethylthio)benzylidene)-6-(4-trifluoromethylbenzylidene)-2,5-piperazinedione] |
| – | – | – | 10 | – | CN(C)CCSc1ccc(/C=c2\[nH]c(=O)/c(=C/c3ccc(C(F)(F)F)cc3)[nH]c2=O)cc1 [Compound 5294.HCl, (3Z,6Z)-3-(4-(2-Dimethylaminoethylthio)benzylidene)-6-(4-trifluoromethylbenzylidene)-2,5-piperazinedione] |
| – | 64 | 70 | 25 | – | CC(=O)Nc1ccc(/C=c2\[nH]c(=O)/c(=C/c3ccc(SCCN(C)C)s3)[nH]c2=O)cc1 [Compound 5300, (3Z,6Z)-6-(4-Acetamidobenzylidene)-3-(5-(2-dimethylaminoethylthio)-2-thienyl)methylene-2,5-piperazinedione] |
| 10 | 41 | 26 | – | – | CC(=O)Nc1ccc(/C=c2\[nH]c(=O)/c(=C/c3ccc(SCCN(C)C)s3)[nH]c2=O)cc1 [Compound 5300.HCl, (3Z,6Z)-6-(4-Acetamidobenzylidene)-3-(5-(2-dimethylaminoethylthio)-2-thienyl)methylene-2,5-piperazinedione] |
| – | 83 | 88 | 8.5 | – | CN(C)CCSc1ccc(/C=c2\[nH]c(=O)/c(=C/c3ccnc4ccccc34)[nH]c2=O)s1 [Compound 5307, (3Z,6Z)-6-(5-(2-Dimethylaminoethylthio)-2-thienyl)methylene-3-(4-quinolylmethylene)-2,5-piperazinedione] |
| – | – | – | – | 15 | CN(C)CCSc1ccc(/C=c2\[nH]c(=O)/c(=C/c3ccc4c(c3)CCO4)[nH]c2=O)s1 [Compound 5311, (3Z,6Z)-3-(2,3-dihydro-5-benzofuranyl)methylene-6-(5-(2-dimethylaminoethylthio)-2-thienyl)methylene-2,5-piperazinedione] |

The next lines start with the compound.

| Compound | % Inhibition (5 μm) [%] | % Inhibition (20 μm) [%] | % Inhibition (100 μm) [%] | IC50 [1] [µM] | IC50 [µM] |
| --- | --- | --- | --- | --- | --- |
| CN(C)CCSc1ccc(/C=c2\[nH]c(=O)/c(=C/c3ccccc3)[nH]c2=O)s1 [Compound 5131.HCl, (3Z,6Z)-6-Benzylidene-3-(5-(2-dimethylaminoethylthio)-2-thienyl)methylene-2,5-piperazinedione] | – | 65 | 56 | 5 | – |
| CN(C)CCSc1ccc(/C=c2\[nH]c(=O)/c(=C/c3ccsc3)[nH]c2=O)cc1 [Compound 5133.HCl, (3Z,6Z)-6-(4-(2-Dimethylaminoethylthio)benzylidene)-3-(3-thienylmethylene)-2,5-piperazinedione] | – | 66 | 24 | 3 | – |
| CN(C)CCSc1ccc(/C=c2\[nH]c(=O)/c(=C/c3ccc4ccccc4c3)[nH]c2=O)s1 [Compound 5286, (3Z,6Z)-3-(5-(2-Dimethylaminoethylthio)-2-thienyl)methylene-6-(2-naphthyl)methylene-2,5-piperazinedione] | – | 87 | 98 | 8 | – |
| CN(C)CCSc1ccc(/C=c2\[nH]c(=O)/c(=C/c3cccc(Cl)c3)[nH]c2=O)s1 [Compound 5291, (3Z,6Z)-6-(3-Chlorobenzylidene)-3-(5-(2-dimethylaminoethylthio)-2-thienyl)methylene-2,5-piperazinedione] | – | – | – | 20 | – |
| CN(C)CCSc1ccc(/C=c2\[nH]c(=O)/c(=C/c3cccc(Cl)c3)[nH]c2=O)cc1 [Compound 5292.HCl, (3Z,6Z)-3-(3-Chlorobenzylidene)-6-(4-(2-dimethylaminoethylthio)benzylidene)-2,5-piperazinedione] | – | – | – | 2 | – |
| CN(C)CCSc1ccc(/C=c2\[nH]c(=O)/c(=C/c3ccc(C(F)(F)F)cc3)[nH]c2=O)s1 [Compound 5293, (3Z,6Z)-3-(5-(2-Dimethylaminoethylthio)-2-thienyl)methylene-6-(4-trifluoromethylbenzylidene)-2,5-piperazinedione] | – | – | – | 20 | – |
| CN(C)CCSc1ccc(/C=c2\[nH]c(=O)/c(=C/c3ccc4c(c3)Cc3ccccc3-4)[nH]c2=O)s1 [Compound 5301, (3Z,6Z)-3-(5-(2-Dimethylaminoethylthio)-2-thienyl)methylene-6-(2-fluorenylmethylene)-2,5-piperazinedione] | – | 65 | 107 | 20 | – |
| CN(C)CCSc1ccc(/C=c2\[nH]c(=O)/c(=C/c3ccnc4ccccc34)[nH]c2=O)s1 [Compound 5307.HCl, (3Z,6Z)-6-(5-(2-Dimethylaminoethylthio)-2-thienyl)methylene-3-(4-quinolylmethylene)-2,5-piperazinedione] | – | – | – | 18 | – |
| CN(C)CCSc1ccc(/C=c2\[nH]c(=O)/c(=C/c3ccc4ccccc4n3)[nH]c2=O)s1 [Compound 5308, (3Z,6Z)-6-(5-(2-Dimethylaminoethylthio)-2-thienyl)methylene-3-(2-quinolylmethylene)-2,5-piperazinedione] | – | 81 | 80 | 4.7 | – |
| CN(C)CCSc1ccc(/C=c2\[nH]c(=O)/c(=C/c3ccc4ccccc4n3)[nH]c2=O)s1 [Compound 5308.HCl, (3Z,6Z)-6-(5-(2-Dimethylaminoethylthio)-2-thienyl)methylene-3-(2-quinolylmethylene)-2,5-piperazinedione] | – | 93 | 93 | 4.5 | – |
| CN(C)CCSc1ccc(/C=c2\[nH]c(=O)/c(=C/c3ccc4c(c3)CCO4)[nH]c2=O)s1 [Compound 5311.HCl, (3Z,6Z)-3-(2,3-dihydro-5-benzofuranyl)methylene-6-(5-(2-dimethylaminoethylthio)-2-thienyl)methylene-2,5-piperazinedione] | – | – | – | 20 | – |
| CN(C)CCSc1ccc(/C=c2\[nH]c(=O)/c(=C/c3ccccc3Br)[nH]c2=O)s1 [Compound 5313, (3Z,6Z)-6-(2-Bromobenzylidene)-3-(5-(2-dimethylaminoethylthio)-2-thienyl)methylene-2,5-piperazinedione] | – | 10 | – | – | – |
